Consider one molecule from patent publication US5756327A, “Recombinant mycobacterial isoleucyl-tRNA synthetase genes, tester strains and assays” (priority 1995, dated 1998).

The test system of test [1] is DH5α cells expressing wild-type IleRS on a plasmid (pKS21). Nature of the test: Pseudomonic acid (PMA) rescue, growth in liquid culture (A600). The settings on record: LB plus ampicillin media containing 40 μg/ml PMA; 30° C., 36-40 hours. It is filed as cell-based, E. coli.
For test [2], the system named is E. coli DH5α cells expressing the M. tuberculosis IleRS gene (on pKS-56). In kind it is cell-based.
The subject of test [3] is E. coli cells with the TB GST-IleRS fusion construct, pGX-56. It is filed as cell-based. Particulars: as for pKS-56: 40 μg/ml PMA, LB plus ampicillin.
The subject of test [4] is E. coli IleRS. Particulars: Hughes and Mellows, Biochem. J. 176:305-318 (1978); cited from earlier work.

`C/C(=C\C(=O)OCCCCCCCCC(=O)O)C[C@@H]1OC[C@H](C[C@@H]2O[C@H]2[C@@H](C)[C@H](C)O)[C@@H](O)[C@H]1O` [PMA, pseudomonic acid A]: the inhibition of growth result in test [1] is reported as “completely inhibited”; in test [2] (LB plus ampicillin media containing 40 μg/ml PMA, 30° C., 36-40 hours) it was “no inhibition of growth”; in test [3] it was “Identical results”. Besides, the “growth at highest concentration tested” value in test [2] (LB plus ampicillin with 640 μg/ml PMA (higher concentrations were not tested)) is “continued to grow”. Further, in test [4], the “sensitivity of E. coli IleRS to PMA” value was “extremely sensitive”.
